# Test results reported in article PMC6104039 (Nature Communications, 2018).
# Where “and” joins values, the source holds several entries; their conditions need not be identical. Equal entries are not always repeated.
# Columns and labels:
# C57BL6/J mice = test: Hyperinsulinemic-euglycemic clamps; assay type: in vivo; conditions: 5 mg/kg, chow or HFD
# Method: At 5 weeks of diet/drug treatment, mice underwent surgery to implant catheters into the left carotid artery and right jugular vein. Catheters were flushed every 1–2 days with heparinised saline to maintain patency. Approximately 6–8 days post surgery, and after a ~5 h fast, a hyperinsulinemic-euglycemic clamp was conducted. Mice were conscious, unrestrained and were not handled during the procedure to minimize stress. At −90 min, a primed (5 μCi) continuous infusion (0.05 μCi/min) of [3,^3H]-glucose (PerkinElmer) was commenced. Samples were collected at −30, −20, −10 and 0 min for basal glucose turnover (Rd) determination. […] Once blood glucose was stable, four sequential samples were taken to determine insulin-stimulated glucose turnover. A bolus of 2[^14C]deoxyglucose (10 μCi; PerkinElmer) was then administered and blood sampled at 2, 5, 10, 15, 20 and 30 min, prior to collection of muscles for determination of glucose uptake.
# SkM = test: Targeted quantification of sphingosine and dihydrosphingosine in SkM; assay type: in vivo, mice; conditions: 5 mg/kg daily
# Text: Male C57BL6/J mice were obtained from the Animal Resources Centre in Perth (WA, Australia). […] Treatment was commenced at the same time as mice were randomised to dietary groups. The experiments were approved by the UNSW animal care and ethics committee (ACEC 15/48B), and followed guidelines issued by the National Health and Medical Research Council of Australia.
# [1] = tested on: permeabilised extensor digitorum longus muscle fibres; test: Respiratory complex activities in permeabilized extensor digitorum longus muscle fibres; assay type: in vivo, mice; conditions: three weeks, 5 mg/kg
# Method: Permeabilized extensor digitorum longus (EDL) fibres were prepared and mitochondrial function analyzed according to published protocols with some modifications[71],[72]. Briefly, EDL muscles were dissected tendon-to-tendon into ice-cold isolation buffer A (10 mM Ca-EGTA buffer, 20 mM imidazole, 20 mM taurine, 49 mM K-MES, 3 mM K2HPO4, 9.5 mM MgCl2, 5.7 mM ATP, 15 mM phosphocreatine, 1 μM leupeptin, pH 7.1) and fibres were prepared immediately. Fibre bundles (~3 mg wet weight) were treated with saponin (50 μg/mL) for 20 min at 4 °C and subsequently washed in cold respiration medium B (0.5 mM EGTA, 3 mM MgCl2.6H2O, 20 mM taurine, 10 mM KH2PO4, 20 mM HEPES, 0.1% BSA, 15 mM potassium-lactobionate, 110 mM mannitol, 0.3 mM dithiothreitol, pH 7.1). […] Fibres were recovered after polarography and results were expressed as nmoles of O2/min/mg of tissue. Mitochondrial membrane integrity was verified by cytochrome c release test[71],[72].
# [2] = tested on: cultured primary myotubes; test: Ceramide content of cultured primary myotubes; assay type: cell-based, murine; conditions: 1 μM
# Text: myotubes would go a long way in making the muscle component of this work more […]
# Response: We agree with the reviewer that experiments in muscle cells often allow additional mechanistic studies to be undertaken. We investigated this possibility in immortalised and primary […]
# where C18:0 ceramide is by the far the dominant ceramide species, cultured muscle cells contain much higher levels of other ceramides, particularly C16:0 (see figure below). This divergence in ceramide profile between cultured myotubes and muscle tissue in vivo has been reported by other […]
# C18:0 ceramide content in cultured primary myotubes by ~30% (P = 0.02), whilst having no […]
# profile of skeletal muscle, CerS1 inhibition experiments with myotubes would have limited translatability to the in vivo setting.
# (1 picture or pasted object on this page, not shown here)
# cerebellum = test: Ceramide, SM and HexCer levels in cerebellum; assay type: in vivo, mice; conditions: Chow + P053; individual mice, raw data for Supplementary Figure 7;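 on Cer 18:1/18:0 content of cerebellum: pmol per mg cerebellum tissue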;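 on Cer 18:1/24:0 content of cerebellum: pmol per mg cerebellum tissue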;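 on Cer 18:1/24:1 content of cerebellum: pmol per mg cerebellum tissue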;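 on Cer 18:2/18:0 content of cerebellum: pmol per mg cerebellum tissue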;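 on HexCer 18:1 content of cerebellum: pmol per mg cerebellum tissue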;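 on HexCer 20:1 content of cerebellum: pmol per mg cerebellum tissue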;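 on HexCer 22:1 content of cerebellum: pmol per mg cerebellum tissue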;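 on HexCer 24:0 content of cerebellum: pmol per mg cerebellum tissue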;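 on SM 32:1 content of cerebellum: pmol per mg cerebellum tissue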;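 on SM 34:2 content of cerebellum: pmol per mg cerebellum tissue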;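 on SM 36:1 content of cerebellum: pmol per mg cerebellum tissue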;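 on SM 36:2 content of cerebellum: pmol per mg cerebellum tissue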;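 on SM 40:1 content of cerebellum: pmol per mg cerebellum tissue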;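 on SM 40:2 content of cerebellum: pmol per mg cerebellum tissue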
# Text: Supplementary Figure 7. […] Ceramide, SM, and HexCer […]
# levels in the cerebellum of vehicle- or P053-treated mice on a chow or HFD. N = 10 mice per group, except for chow vehicle group (n = 9). Mean ± SEM shown. No lipids were […]
# comparisons. C18:0 HexCer was 45% lower in the P053-treated compared to the vehicle-treated HFD group (unadjusted P value = 0.02; adjusted value P = 0.16). Raw data for these figures is provided in Supplementary Data File 1.
structure (smiles),measurement,setting,value
"C[C@@](N)(CO)CCc1ccc(OCc2ccc(Cl)c(Cl)c2)cc1 [P053, (S)-2-amino-4-(4-(3,4-dichlorobenzyloxy)phenyl)-2-methylbutan-1-ol]","glucose infusion rate, peripheral glucose disposal, insulin-stimulated glucose uptake in SkM",C57BL6/J mice,no impact
same,dihydrosphingosine levels in SkM,SkM,not notably affected
same,increase of sphingosine levels in SkM,SkM; HFD,22%
same,increase of sphingosine levels in SkM,"SkM; chow diet, not significant",11%
same,complex II activity,[1],trend for an increase
same,respiratory activity with complex I and IV substrates,[1],significant increase
same,reduction of C18:0 ceramide content,[2],~ 30%
same,Cer 18:1/16:0 content of cerebellum,cerebellum,3.617 and 2.396 and 2.239 and 1.878 and 1.763 and 7.091 and 4.235 and 4.186 and 2.745 and 2.729
same,Cer 18:1/18:0 content of cerebellum,cerebellum,141.97 and 85.5119 and 108.595 and 104.792 and 97.4561 and 431.392 and 196.381 and 275.197 and 135.779 and 146.615
same,Cer 18:1/20:0 content of cerebellum,cerebellum,10.8793 and 8.155 and 10.4755 and 10.5072 and 6.176 and 36.1314 and 20.5959 and 26.7359 and 12.6268 and 16.6128
same,Cer 18:1/22:0 content of cerebellum,cerebellum,14.5276 and 15.0246 and 22.6132 and 25.2761 and 10.65 and 51.7937 and 37.5604 and 49.7318 and 29.1858 and 28.3511
same,Cer 18:1/24:0 content of cerebellum,cerebellum,25.164 and 39.1513 and 61.4338 and 64.1688 and 24.2127 and 137.911 and 88.346 and 158.631 and 89.2495 and 92.5091
same,Cer 18:1/24:1 content of cerebellum,cerebellum,194.92 and 106.297 and 150.541 and 182.076 and 61.3337 and 311.08 and 260.185 and 253.268 and 147.127 and 119.244
same,Cer 18:2/18:0 content of cerebellum,cerebellum,6.1678 and 7.469 and 7.847 and 9.952 and 5.015 and 15.2517 and 13.7543 and 19.4608 and 12.754 and 10.8001
same,HexCer 16:0 content of cerebellum,cerebellum,2.618 and 11.905 and 12.0787 and 17.3566 and 8.981 and 4.913 and 10.616 and 11.083 and 11.1713 and 10.2043
same,HexCer 18:0 content of cerebellum,cerebellum,28.8093 and 286.922 and 231.007 and 375.961 and 165.705 and 81.8257 and 140.616 and 234.577 and 281.805 and 232.737
same,HexCer 18:1 content of cerebellum,cerebellum,4.066 and 35.919 and 27.4449 and 39.8082 and 28.3147 and 12.0017 and 18.6127 and 33.0051 and 39.5714 and 38.2232
same,HexCer 20:0 content of cerebellum,cerebellum,5.379 and 62.6592 and 42.0891 and 61.8563 and 40.4642 and 16.7817 and 19.6222 and 44.5602 and 56.0811 and 52.6344
same,HexCer 20:1 content of cerebellum,cerebellum,0.8503 and 3.88 and 2.4108 and 3.569 and 3.668 and 1.176 and 1.073 and 2.879 and 4.092 and 4.073
same,HexCer 22:0 content of cerebellum,cerebellum,103.858 and 933.202 and 709.42 and 853.076 and 744.844 and 421.086 and 403.774 and 821.636 and 996.669 and 1011.42
same,HexCer 22:1 content of cerebellum,cerebellum,67.4582 and 171.007 and 113.764 and 201.906 and 106.093 and 35.9387 and 77.6418 and 92.6997 and 107.257 and 90.5981
same,HexCer 24:0 content of cerebellum,cerebellum,564.043 and 4618.59 and 3773.48 and 4286.71 and 3653.78 and 2395.46 and 2157.01 and 3975.05 and 5039.63 and 4758.34
same,HexCer 24:1 content of cerebellum,cerebellum,3233.35 and 7019.2 and 5377.98 and 7770.21 and 6449.16 and 3511.89 and 4048.72 and 5184.76 and 6290.34 and 5656.27
same,SM 32:1 content of cerebellum,cerebellum,7.744 and 10.8885 and 9.082 and 12.3443 and 9.858 and 7.664 and 8.692 and 8.551 and 8.187 and 8.4615
same,SM 34:1 content of cerebellum,cerebellum,82.5407 and 146.305 and 94.5019 and 129.483 and 151.913 and 73.8551 and 80.0167 and 90.7654 and 102.782 and 113.569
same,SM 34:2 content of cerebellum,cerebellum,7.207 and 9.9108 and 8.648 and 11.4512 and 8.062 and 5.446 and 4.538 and 7.185 and 8.297 and 8.329
same,SM 36:1 content of cerebellum,cerebellum,194.844 and 464.875 and 291.749 and 380.257 and 596.135 and 225.303 and 199.676 and 294.675 and 315.392 and 396.468
same,SM 36:2 content of cerebellum,cerebellum,59.5005 and 77.3429 and 59.1592 and 95.459 and 61.3204 and 42.7823 and 27.3474 and 61.4896 and 55.0172 and 56.8047
same,SM 38:1 content of cerebellum,cerebellum,38.445 and 174.02 and 119.141 and 145.805 and 204.374 and 106.701 and 86.1831 and 141.777 and 157.803 and 199.243
same,SM 38:2 content of cerebellum,cerebellum,7.207 and 11.8634 and 6.682 and 10.3765 and 10.2552 and 3.609 and 2.903 and 5.065 and 7.083 and 7.8
same,SM 40:1 content of cerebellum,cerebellum,51.2464 and 304.001 and 220.117 and 327.562 and 242.07 and 125.331 and 158.353 and 223.684 and 258.853 and 295.067
same,SM 40:2 content of cerebellum,cerebellum,51.3559 and 98.4003 and 64.6125 and 113.428 and 67.3016 and 27.1328 and 51.0354 and 51.6641 and 60.1105 and 65.3939
